Source: patent publication US5939399A, “Polyene antibiotics, 3874 H1 to H6, processes for their preparation and use” (Hoechst Aktiengesellschaft, priority 1996, dated 1999)
In brackets after ≈: the same amount, converted by molar mass.

Assays:
[1] = Solubility in organic solvents; assay type: physicochemical
Chemical stability = assay type: physicochemical; conditions: for Stability (unstable in / on exposure to): acidic and strongly alkaline solution, light, heat and oxygen; for Stability (stable in): neutral and weakly alkaline medium
A. flavus ATCC 9643 = assay: In vitro microdilution test in RPMI 1640 medium; assay type: cell-based; conditions: Aspergillus flavus, ATCC9643, 144 h, mold A. flavus ATCC 9643, 6 days at 30° C., read-out: Minimum inhibitory concentration MIC
Description: (§1) In vitro activity on dermatophytes, yeasts and molds
(§2) (microdilution test in RPMI 1640 medium)
(§3) Incubation: 48 h at 35° C. (yeasts) or 6 days at 30° C. (dermatophytes and molds)

A. fumigatus ATCC 9197 = assay: In vitro microdilution test in RPMI 1640 medium; assay type: cell-based; conditions: Aspergillus fumigatus, ATCC9197, 144 h, mold A. fumigatus ATCC 9197, 6 days at 30° C., read-out: Minimum inhibitory concentration MIC
Description: as §1, §2, §3

A. niger ATCC 16404 = assay: In vitro microdilution test in RPMI 1640 medium; assay type: cell-based; conditions: Aspergillus niger, ATCC16404, 144 h, mold A. niger ATCC 16404, 6 days at 30° C., read-out: Minimum inhibitory concentration MIC
Description: as §1, §2, §3

C. albicans ATCC 90028 = assay: In vitro microdilution test in RPMI 1640 medium; assay type: cell-based; conditions: Candida albicans, ATCC90028, yeast C. albicans ATCC 90028, 48 h at 35° C., read-out: Minimum inhibitory concentration MIC
Description: as §1, §2, §3

C. albicans ATCC 90029 = assay: In vitro microdilution test in RPMI 1640 medium; assay type: cell-based; conditions: Candida albicans, ATCC90029, yeast C. albicans ATCC 90029, 48 h at 35° C., read-out: Minimum inhibitory concentration MIC
Description: as §1, §2, §3

C. glabrata ATCC 90030 = assay: In vitro microdilution test in RPMI 1640 medium; assay type: cell-based; conditions: Nakaseomyces glabratus, ATCC90030, yeast C. glabrata ATCC 90030, 48 h at 35° C., read-out: Minimum inhibitory concentration MIC
Description: as §1, §2, §3

C. glabrata Berlin 12 = assay: In vitro microdilution test in RPMI 1640 medium; assay type: cell-based; conditions: Nakaseomyces glabratus, BERLIN12, yeast C. glabrata Berlin 12, 48 h at 35° C., read-out: Minimum inhibitory concentration MIC
Description: as §1, §2, §3

C. krusei 203/230 = assay: In vitro microdilution test in RPMI 1640 medium; assay type: cell-based; conditions: Pichia kudriavzevii, yeast C. krusei 203/230, 48 h at 35° C., read-out: Minimum inhibitory concentration MIC
Description: as §1, §2, §3

C. krusei Berlin 1 = assay: In vitro microdilution test in RPMI 1640 medium; assay type: cell-based; conditions: Pichia kudriavzevii, BERLIN1, yeast C. krusei Berlin 1, 48 h at 35° C., read-out: Minimum inhibitory concentration MIC
Description: as §1, §2, §3

C. neoformans ATCC 90112 = assay: In vitro microdilution test in RPMI 1640 medium; assay type: cell-based; conditions: Cryptococcus neoformans, ATCC90112, yeast C. neoformans ATCC 90112, 48 h at 35° C., read-out: Minimum inhibitory concentration MIC
Description: as §1, §2, §3

[2] = test system: C. parapsilosis ATCC 90018; assay: In vitro microdilution test in RPMI 1640 medium; assay type: cell-based; conditions: Lodderomyces parapsilosis, ATCC90018, yeast C. parapsilosis ATCC 90018, 48 h at 35° C., read-out: Minimum inhibitory concentration MIC
Description: as §1, §2, §3

[3] = test system: C. pseudotropicalis 202/218; assay: In vitro microdilution test in RPMI 1640 medium; assay type: cell-based; conditions: Kluyveromyces marxianus, yeast C. pseudotropicalis 202/218, 48 h at 35° C., read-out: Minimum inhibitory concentration MIC
Description: as §1, §2, §3

C. tropicalis 201/201 = assay: In vitro microdilution test in RPMI 1640 medium; assay type: cell-based; conditions: Candida tropicalis, yeast C. tropicalis 201/201, 48 h at 35° C., read-out: Minimum inhibitory concentration MIC
Description: as §1, §2, §3

C. tropicalis 201/202 = assay: In vitro microdilution test in RPMI 1640 medium; assay type: cell-based; conditions: Candida tropicalis, yeast C. tropicalis 201/202, 48 h at 35° C., read-out: Minimum inhibitory concentration MIC
Description: as §1, §2, §3

E. floccosum 190/143 = assay: In vitro microdilution test in RPMI 1640 medium; assay type: cell-based; conditions: Epidermophyton floccosum, 144 h, dermatophyte E. floccosum 190/143, 6 days at 30° C., read-out: Minimum inhibitory concentration MIC
Description: as §1, §2, §3

T. mentagrophytes 100/25 = assay: In vitro microdilution test in RPMI 1640 medium; assay type: cell-based; conditions: Trichophyton mentagrophytes, 144 h, dermatophyte T. mentagrophytes 100/25, 6 days at 30° C., read-out: Minimum inhibitory concentration MIC
Description: as §1, §2, §3

T. rubrum 101/58 = assay: In vitro microdilution test in RPMI 1640 medium; assay type: cell-based; conditions: Trichophyton rubrum, 144 h, dermatophyte T. rubrum 101/58, 6 days at 30° C., read-out: Minimum inhibitory concentration MIC
Description: as §1, §2, §3

test microbes = assay: Agar diffusion test, zones of inhibition; assay type: cell-based; conditions: for zone of inhibition at 25 µg/mL: concentration 0.025 mg/mL; for zone of inhibition at 25 µg/mL / zone of inhibition at 50 µg/mL / zone of inhibition at 100 µg/mL / zone of inhibition at 200 µg/mL / Zone of inhibition (diameter): agar layer; for zone of inhibition at 25 µg/mL / zone of inhibition at 50 µg/mL / zone of inhibition at 100 µg/mL / zone of inhibition at 200 µg/mL / zone of inhibition at 6.3 µg/mL / zone of inhibition at 12.5 µg/mL: read-out: Zone of inhibition (diameter); for zone of inhibition at 50 µg/mL: concentration 0.05 mg/mL; for zone of inhibition at 100 µg/mL: concentration 0.1 mg/mL; for zone of inhibition at 200 µg/mL: concentration 0.2 mg/mL
Text: The superiority of the antibiotics according to the invention is shown particularly in so-called diffusion tests in which the compounds diffuse in an agar layer containing the test microbes. The diameter of the zones of inhibition is then a measure of the activity of the antibiotics (Table 3).

[4] = Binding to ergosterol compared with cholesterol

Row | Structure (SMILES) | Solubility [1] | Stability (unstable in / on exposure to) (Chemical stability) | Stability (stable in) (Chemical stability) | MIC (A. flavus ATCC 9643) [µg/mL] | MIC (A. fumigatus ATCC 9197) [µg/mL] | MIC (A. niger ATCC 16404) [µg/mL] | MIC (C. albicans ATCC 90028) [µg/mL] | MIC (C. albicans ATCC 90029) [µg/mL] | MIC (C. glabrata ATCC 90030) [µg/mL] | MIC (C. glabrata Berlin 12) [µg/mL] | MIC (C. krusei 203/230) [µg/mL] | MIC (C. krusei Berlin 1) [µg/mL] | MIC (C. neoformans ATCC 90112) [µg/mL] | MIC [2] [µg/mL] | MIC [3] [µg/mL] | MIC (C. tropicalis 201/201) [µg/mL] | zone of inhibition at 25 µg/mL (test microbes) [mm] | zone of inhibition at 50 µg/mL (test microbes) [mm] | zone of inhibition at 100 µg/mL (test microbes) [mm] | zone of inhibition at 200 µg/mL (test microbes) [mm] | other results
1 | CNc1ccc(C(=O)CC(O)CCC(C)C2OC(=O)CC(O)CC(O)CCCC(O)CC(O)CC(O)CC3(O)CC(O)C(C(=O)O)C(CC(OC4OC(C)C(O)C(N)C4O)/C=C/C=C/C=C/C=C\C=C/C=C/C=C/C2C)O3)cc1 (stereo not drawn) [3874 H2] | soluble in methanol, acetonitrile and chloroform | unstable in acidic and strongly alkaline solution and on exposure to light, heat and oxygen | Stable in neutral and weakly alkaline medium | – | – | – | – | – | – | – | – | – | – | – | – | – | – | – | – | – | –
2 | CC1/C=C/C=C/C=C\C=C/C=C/C=C/C=C/C(OC2OC(C)C(O)C(N)C2O)CC2OC(O)(CC(O)CC(O)CC(O)CCCC(O)CC(O)CC(=O)OC1C(C)CCC(O)CC(=O)c1ccc(N)cc1)CC(O)C2C(=O)O (stereo not drawn) [3874 H1] | soluble in methanol, acetonitrile and chloroform | unstable in acidic and strongly alkaline solution and on exposure to light, heat and oxygen | Stable in neutral and weakly alkaline medium | 8 (≈ 7.28 µM) | 4 (≈ 3.64 µM) | 2 (≈ 1.82 µM) | 2 (≈ 1.82 µM) | 2 (≈ 1.82 µM) | 4 (≈ 3.64 µM) | 2 (≈ 1.82 µM) | 4 (≈ 3.64 µM) | 2 (≈ 1.82 µM) | 2 (≈ 1.82 µM) | 4 (≈ 3.64 µM) | 2 (≈ 1.82 µM) | 2 (≈ 1.82 µM) | 21 | 24 | 25 | 26 | MIC (C. tropicalis 201/202): 2 µg/mL (≈ 1.82 µM); MIC (E. floccosum 190/143): 16 µg/mL (≈ 14.6 µM); MIC (T. mentagrophytes 100/25): 4 µg/mL (≈ 3.64 µM); MIC (T. rubrum 101/58): 16 µg/mL (≈ 14.6 µM); zone of inhibition at 6.3 µg/mL (test microbes): 17 mm; zone of inhibition at 12.5 µg/mL (test microbes): 19 mm
3 | C[C@@H]1[C@H](O)[C@@H](C)/C=C/C=C/C=C/C=C/C=C/C=C/C=C/[C@H](O[C@@H]2O[C@H](C)[C@@H](O)[C@H](N)[C@@H]2O)C[C@@H]2O[C@](O)(C[C@@H](O)C[C@@H](O)[C@H](O)CC[C@@H](O)C[C@@H](O)CC(=O)O[C@H]1C)C[C@H](O)[C@H]2C(=O)O [Amphotericin B, amphotericin B, reference compound] | only very low solubility in the said solvents and others | – | – | – | – | – | – | – | – | – | – | – | – | – | – | – | 8 | 10 | 12 | 14 | Zone of inhibition (diameter) (test microbes; concentration 0.0063 mg/mL): .o slashed.; Zone of inhibition (diameter) (test microbes; concentration 0.0125 mg/mL): .o slashed.
4 | C/C=C/C=C/C(=O)CC(O)CCC(C)C1OC(=O)CC(O)CC(O)CCCC(O)CC(O)CC(O)CC2(O)CC(O)C(C(=O)O)C(CC(OC3OC(C)C(O)C(N)C3O)/C=C/C=C/C=C/C=C\C=C/C=C/C=C/C1C)O2 (stereo not drawn) [3874 H3] | soluble in methanol and other lower alcohols, acetonitrile and chloroform | unstable in acidic and strongly alkaline solution and on exposure to light, heat and oxygen | Stable in neutral and weakly alkaline medium | 16 (≈ 14.9 µM) | 4 (≈ 3.72 µM) | 8 (≈ 7.45 µM) | 4 (≈ 3.72 µM) | 4 (≈ 3.72 µM) | 4 (≈ 3.72 µM) | 4 (≈ 3.72 µM) | 4 (≈ 3.72 µM) | 2 (≈ 1.86 µM) | 2 (≈ 1.86 µM) | 4 (≈ 3.72 µM) | 4 (≈ 3.72 µM) | 4 (≈ 3.72 µM) | 14 | 18 | 20 | 22 | MIC (C. tropicalis 201/202): 4 µg/mL (≈ 3.72 µM); MIC (E. floccosum 190/143): 16 µg/mL (≈ 14.9 µM); MIC (T. mentagrophytes 100/25): 8 µg/mL (≈ 7.45 µM); MIC (T. rubrum 101/58): 16 µg/mL (≈ 14.9 µM); zone of inhibition at 6.3 µg/mL (test microbes): 12 mm; zone of inhibition at 12.5 µg/mL (test microbes): 13 mm; Binding to ergosterol versus cholesterol [4]: bind more strongly to ergosterol than to cholesterol
